This note sets out measurements from US20060293516A1, “Penicillin crystal and process for producing the same” (priority 2003, published 2006).

Data set [1] in a line: Storage stability of solid CMPB at room temperature, purity by liquid chromatography. Format: physicochemical. The protocol:
Five grams of the crystalline CMPB obtained in Example 1 (purity: 100%) and 5 g of the amorphous CMPB obtained in Reference Example 1 (purity: 99.2%) were placed in respective test tubes. These test tubes were sealed and stored at room temperature (20 to 30° C.) for 1 month. The respective purities of the CMPB samples were then determined using liquid chromatography.
(§1) One gram of crystalline CMPB (purity: 97%) prepared by storing the crystalline CMPB of Example 1 for 20 days at room temperature (about 25° C.) and 1.244 g of amorphous CMPB (purity: 78%) prepared by storing the amorphous CMPB of Reference Example 1 for 20 days at room temperature (about 25° C.) were used as test samples. Each sample was placed in flasks and 10 ml dichloromethane was added to dissolve the sample. These flasks were sealed. The dichloromethane solutions of CMPB samples were stirred at room temperature (about 25° C.) and, after 3.5 hours and after 5 hours, subjected to liquid chromatography to measure the amounts of CMPB remaining in the solutions. The amounts of the remaining CMPB were compared with the amount of CMPB in the crystalline CMPB sample or the amount of CMPB in the amorphous CMPB sample, which were measured prior to the test.

Data set [2] in a line: Stability of CMPB in dichloromethane solution, remaining CMPB by liquid chromatography. Format: physicochemical. Particulars: stirred at room temperature (about 25° C.). The protocol: as §1, with “The dichloromethane solutions of CMPB samples were stirred at room temperature (about 25° C.) and, after 3.5 hours and after 5 hours, subjected to liquid chromatography to measure the amounts of CMPB remaining in the solutions.” left out

Where [3] appears, read: sealed test tube, room temperature (20 to 30° C.), 1 month, initial purity 100% (crystalline), 99.2% (amorphous).
Setting [4] is: stored 20 days at room temperature (about 25° C.).

Consider `C[C@@]1(CCl)SC2CC(=O)N2[C@H]1C(=O)OC(c1ccccc1)c1ccccc1` (stereo partly drawn) [crystalline CMPB, 2β-chloromethyl-2α-methylpenam-3α-carboxylic acid benzhydryl ester], for which the purity after storage in data set [1] (setting [3]) turned out to be 95%; in data set [1] (setting [4]), 97%. The “amount of CMPB remaining in dichloromethane solution relative to initial amount” value in data set [2] (after 3.5 hours) and in data set [2] (after 5 hours) was “exactly the same as the initial amount” each time.
Turning to `C[C@@]1(CCl)SC2CC(=O)N2[C@H]1C(=O)OC(c1ccccc1)c1ccccc1` (stereo partly drawn) [amorphous CMPB, 2β-chloromethyl-2α-methylpenam-3α-carboxylic acid benzhydryl ester], the results for the purity after storage in data set [1] (setting [3]) and in data set [1] (setting [4]) were 67% and 78%, respectively. The “amount of CMPB remaining in dichloromethane solution relative to initial amount” value in data set [2] (after 3.5 hours) was 86.8%; in data set [2] (after 6 hours (so in the source)), 63.4%.
